The values that follow come from patent US10570179B2, “Substituted urea depsipeptide analogs as activators of the CLPP endopeptidase” (priority 2016, dated 2020).

Values after ≈ are worked out from the molar mass of the structure shown. Numbered stars: 1 amine (or outer) side, 2 acyl side, 3 side chain; on linkers, the order of the positions; unused ones are H or OH. Bridge positions count the residues as written; N and C are the ends. Square brackets hold non-standard residues; d marks the D form. Peptide text beside a SMILES is read from it. * marks the point of attachment. Piperazine(2S-CO,4-Me) = CN1CCN[C@H](C(=O)O)C1; Phe(3-OMe) = COc1cccc(C[C@H](N)C(=O)O)c1; Phe(3-Me) = Cc1cccc(C[C@H](N)C(=O)O)c1; X4 = O=C1CN([*:1])[C@H](C(=O)[*:2])CN1; NH(4-Cl-2-F-phenyl) = Fc1cc(Cl)ccc1N*; Pro(4R-Me) = C[C@H]1CN[C@H](C(=O)O)C1; aThr = C[C@H](O)[C@H](N)C(=O)O; Pip = O=C(O)[C@@H]1CCCCN1; X3 = c1cc2c(cc1N*)OCCO2; CO = O=C([*:1])[*:2]

Series [1] concerns E. faecails. Nature of the series: Minimal inhibitory concentration, microbroth dilution. The class given is cell-based. The following applies: Enterococcus faecalis; MIC; read-out: Minimal Inhibitory Concentrations (μM) E. faecails. The essentials:
(§1)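 Susceptibility testing used the CLSI dilution standard, with bacteria at ~10^5 cfu/mL exposed to a two-fold compound series beginning at 200 μM final. The endpoint is the lowest concentration showing no growth after overnight incubation (37 °C, aerobic).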
In general terms: Dilution methods test growth across graded concentrations, often in twofold steps.

For series [2], the system named is MRSA NRS70. The series is described as above. The class given is cell-based. As to conditions: Staphylococcus aureus; MIC; read-out: Minimal Inhibitory Concentrations (μM) MRSA NRS70. Put shortly:
as §1

The subject of series [3] is S. aureus ATCC 29213. Described as above. The class given is cell-based. As to conditions: Staphylococcus aureus, ATCC29213; MIC; read-out: Minimal Inhibitory Concentrations (μM) S. aureus ATCC 29213. Put shortly: as §1
In series [4] the test system is S. aureus USA 300. The description is as above. The format is cell-based. As to conditions: Staphylococcus aureus, USA300; MIC; read-out: Minimal Inhibitory Concentrations (μM) S. aureus USA 300. The essentials: as §1
Series [5] in a line: Plasma protein binding, rapid equilibrium dialysis. As to conditions: human, 4 h, 10 μM, pH 7.4. The format is in vitro ADME, human. Put shortly: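 Compound spiked at 10 μM (0.1% DMSO) into human plasma, dialysed against DPBS pH 7.4 across 8 K MWCO RED membrane for 4 h at 37 °C with shaking. Both chambers quantified by LC-MS against warfarin internal standard; % free = buffer/plasma concentration ×100, % bound = 100 − % free.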
For orientation: In equilibrium dialysis free small molecules cross a membrane that holds back macromolecules.

A short description of series [6]: Plasma protein binding, rapid equilibrium dialysis. The format is in vitro ADME, mouse. As to conditions: mouse, 4 h, 10 μM, pH 7.4.
A short description of series [7]: Plasma stability assay. The class given is in vitro ADME, human. The following applies: human, 10 μM. Put shortly:
(§2)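 Compounds at 10 μM final in human or mouse plasma, incubated at 37 °C and sampled at 0, 3, 24 and 48 h in triplicate. Reactions quenched with cold acetonitrile containing warfarin internal standard; parent measured by LC-MS. Half-life from least-squares first-order fit.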

Series [8] can be described thus: Plasma stability assay. The class given is in vitro ADME, mouse. The following applies: mouse, 10 μM. Put shortly:
as §2

Take `COc1cccc(C[C@H](NC(=O)Nc2ccc(Cl)cc2F)C(=O)N[C@H]2COC(=O)[C@@H]3C[C@@H](C)CN3C(=O)[C@H](C)NC(=O)[C@@H]3CN(C)CCN3C(=O)[C@@H]3CCCN3C2=O)c1` [Compound 19, (S)-2-(3-(4-CHLORO-2-FLUOROPHENYL)UREIDO)-3-(3-METHOXYPHENYL)-N-((6AS,12S,15AS,17R,21S,23AS)-2,17,21-TRIMETHYL-6,11,15,20,23-PENTAOXOOCTADECAHYDRO-2H,6H,11H,15H-PYRAZINO[2,1-I]DIPYRROLO[2,1-C:2′,1′-L][1]OXA[4,7,10,13]TETRAAZACYCLOHEXADECIN-12-YL)PROPANAMIDE] ({NH(4-Cl-2-F-phenyl)-CO}-[Phe(3-OMe)]SP[Piperazine(2S-CO,4-Me)]A[Pro(4R-Me)]; ester 2-C): the MIC in series [1], in series [2], in series [3] and in series [4] was 10 µM (≈ 8.41 µg/mL) each time. The Human in series [5] worked out at 98.9 ± 0.2%; in series [7], 62.38 h. In addition, the Mouse in series [6] is 98.3 ± 0.1%; in series [8] it was 12.82 h.
With `Cc1cccc(C[C@H](NC(=O)Nc2ccc(Cl)cc2F)C(=O)N[C@@H]2C(=O)N3CCC[C@H]3C(=O)N3CC(=O)NC[C@H]3C(=O)N[C@@H](C)C(=O)N3C[C@H](C)C[C@H]3C(=O)O[C@H]2C)c1` [Compound 20, (S)-2-(3-(4-CHLORO-2-FLUOROPHENYL)UREIDO)-3-(M-TOLYL)-N-((6AS,12S,13S,15AS,17R,21S,23AS)-13,17,21-TRIMETHYL-3,6,11,15,20,23-HEXAOXOOCTADECAHYDRO-2H,6H,11H,15H-PYRAZINO[2,1-I]DIPYRROLO[2,1-C:2′,1′-L][1]OXA[4,7,10,13]TETRAAZACYCLOHEXADECIN-12-YL)PROPANAMIDE] ({NH(4-Cl-2-F-phenyl)-CO}-[Phe(3-Me)][aThr]P[X4]A[Pro(4R-Me)]; ester 2-C), the MIC in series [1] amounted to 2.5 µM (≈ 2.1 µg/mL); in series [2] it was 5 µM (≈ 4.2 µg/mL); in series [3], 1.25 µM (≈ 1.05 µg/mL); in series [4], 5 µM (≈ 4.2 µg/mL). In addition, the figures for the Human in series [5] and in series [7] were 97.5 ± 0.2% and 14.0 h, respectively. Besides, the results for the Mouse in series [6] and in series [8] were 98.7 ± 0.1% and 13.2 h, respectively.
Turning to `Cc1cccc(C[C@H](NC(=O)Nc2ccc3c(c2)OCCO3)C(=O)N[C@@H]2C(=O)N3CCC[C@H]3C(=O)N3CCCC[C@H]3C(=O)N[C@@H](C)C(=O)N3C[C@H](C)C[C@H]3C(=O)O[C@H]2C)c1` [Compound 21, (S)-2-(3-(2,3-DIHYDROBENZO[B][1,4]DIOXIN-6-YL)UREIDO)-3-(M-TOLYL)-N-((2R,6S,8AS,14AS,20S,21S,23AS)-2,6,21-TRIMETHYL-5,8,14,19,23-PENTAOXOOCTADECAHYDRO-1H,5H,14H,19H-PYRIDO[2,1-I]DIPYRROLO[2,1-C:2′,1′-L][1]OXA[4,7,10,13]TETRAAZACYCLOHEXADECIN-20-YL)PROPANAMIDE] ({X3-CO}-[Phe(3-Me)][aThr]P[Pip]A[Pro(4R-Me)]; ester 2-C), the MIC in series [1] is 0.625 µM (≈ 0.519 µg/mL); in series [2], 0.313 µM (≈ 0.26 µg/mL); in series [3], 0.625 µM (≈ 0.519 µg/mL); in series [4], 1.25 µM (≈ 1.04 µg/mL). The Human in series [5] is 97.3 ± 0.1%; in series [7] it was above 50 h. Also, the Mouse in series [6] was 99.2 ± 0.1%; in series [8] it was above 50 h.
For `Cc1cccc(C[C@H](NC(=O)Nc2ccc3c(c2)OCCO3)C(=O)N[C@H]2COC(=O)[C@@H]3C[C@@H](C)CN3C(=O)[C@H](C)NC(=O)[C@@H]3CCCCN3C(=O)[C@@H]3CCCN3C2=O)c1` [Compound 22, (S)-2-(3-(2,3-DIHYDROBENZO[B][1,4]DIOXIN-6-YL)UREIDO)-N-((2R,6S,8AS,14AS,20S,23AS)-2,6-DIMETHYL-5,8,14,19,23-PENTAOXOOCTADECAHYDRO-1H,5H,14H,19H-PYRIDO[2,1-I]DIPYRROLO[2,1-C:2′,1′-L][1]OXA[4,7,10,13]TETRAAZACYCLOHEXADECIN-20-YL)-3-(M-TOLYL)PROPANAMIDE], the MIC in series [1] was 1.25 µM (≈ 1.02 µg/mL); in series [2] it was 1.25 µM (≈ 1.02 µg/mL); in series [3], 5 µM (≈ 4.08 µg/mL); in series [4], 5 µM (≈ 4.08 µg/mL). Besides, the Human in series [5] is 97.1 ± 0.2%; in series [7] it was above 50 h. The Mouse in series [6] came to 98.4 ± 0.1%; in series [8], 46.15 h.
